One assay concerns the target T1, TNKS-1 (Homo sapiens, UniProt O95271).
T1 sequence (O95271 1-1327): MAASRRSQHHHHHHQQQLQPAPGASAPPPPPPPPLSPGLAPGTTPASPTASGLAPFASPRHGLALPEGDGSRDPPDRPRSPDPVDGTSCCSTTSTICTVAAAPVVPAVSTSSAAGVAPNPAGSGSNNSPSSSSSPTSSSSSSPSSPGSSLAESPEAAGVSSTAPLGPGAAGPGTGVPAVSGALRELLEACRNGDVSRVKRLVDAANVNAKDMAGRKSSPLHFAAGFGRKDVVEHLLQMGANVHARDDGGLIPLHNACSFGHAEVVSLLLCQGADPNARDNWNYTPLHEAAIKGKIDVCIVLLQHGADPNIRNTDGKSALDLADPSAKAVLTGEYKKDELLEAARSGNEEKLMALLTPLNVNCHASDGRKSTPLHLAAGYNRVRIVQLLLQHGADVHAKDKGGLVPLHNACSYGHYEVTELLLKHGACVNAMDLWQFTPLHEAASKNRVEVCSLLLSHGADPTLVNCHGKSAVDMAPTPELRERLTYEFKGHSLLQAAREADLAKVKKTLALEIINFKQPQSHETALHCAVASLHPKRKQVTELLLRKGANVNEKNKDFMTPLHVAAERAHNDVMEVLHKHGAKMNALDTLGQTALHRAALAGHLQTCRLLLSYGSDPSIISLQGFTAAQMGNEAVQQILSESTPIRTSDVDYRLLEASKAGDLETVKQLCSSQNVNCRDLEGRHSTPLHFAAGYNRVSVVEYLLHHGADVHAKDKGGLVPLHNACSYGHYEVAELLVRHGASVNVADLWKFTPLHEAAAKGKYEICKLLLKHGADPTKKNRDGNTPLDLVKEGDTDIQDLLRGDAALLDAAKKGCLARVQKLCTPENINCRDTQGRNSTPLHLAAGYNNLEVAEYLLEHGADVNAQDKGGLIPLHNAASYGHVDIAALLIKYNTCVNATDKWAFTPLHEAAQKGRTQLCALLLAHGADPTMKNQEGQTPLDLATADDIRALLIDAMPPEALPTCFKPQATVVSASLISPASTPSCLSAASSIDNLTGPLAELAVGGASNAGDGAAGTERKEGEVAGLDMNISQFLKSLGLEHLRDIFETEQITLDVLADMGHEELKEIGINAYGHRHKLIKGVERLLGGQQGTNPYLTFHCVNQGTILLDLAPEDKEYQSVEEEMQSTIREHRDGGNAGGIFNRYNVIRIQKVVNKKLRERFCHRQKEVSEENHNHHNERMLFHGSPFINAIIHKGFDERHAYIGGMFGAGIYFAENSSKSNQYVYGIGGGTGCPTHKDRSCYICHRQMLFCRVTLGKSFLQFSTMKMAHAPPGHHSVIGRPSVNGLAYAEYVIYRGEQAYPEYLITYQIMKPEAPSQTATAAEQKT
The experiment in a line: TNKS-1 autoribosylation assay. The conditions noted are these: for inhibition at 1 µM: read-out: % of inhibition TNKS-1, 1 μM, duplicate; for % of inhibition TNKS-1: 1 μM, duplicate.

The target of another assay is T2, TNKS-2 (Homo sapiens, UniProt Q9H2K2).
T2 sequence (Q9H2K2 1-1166): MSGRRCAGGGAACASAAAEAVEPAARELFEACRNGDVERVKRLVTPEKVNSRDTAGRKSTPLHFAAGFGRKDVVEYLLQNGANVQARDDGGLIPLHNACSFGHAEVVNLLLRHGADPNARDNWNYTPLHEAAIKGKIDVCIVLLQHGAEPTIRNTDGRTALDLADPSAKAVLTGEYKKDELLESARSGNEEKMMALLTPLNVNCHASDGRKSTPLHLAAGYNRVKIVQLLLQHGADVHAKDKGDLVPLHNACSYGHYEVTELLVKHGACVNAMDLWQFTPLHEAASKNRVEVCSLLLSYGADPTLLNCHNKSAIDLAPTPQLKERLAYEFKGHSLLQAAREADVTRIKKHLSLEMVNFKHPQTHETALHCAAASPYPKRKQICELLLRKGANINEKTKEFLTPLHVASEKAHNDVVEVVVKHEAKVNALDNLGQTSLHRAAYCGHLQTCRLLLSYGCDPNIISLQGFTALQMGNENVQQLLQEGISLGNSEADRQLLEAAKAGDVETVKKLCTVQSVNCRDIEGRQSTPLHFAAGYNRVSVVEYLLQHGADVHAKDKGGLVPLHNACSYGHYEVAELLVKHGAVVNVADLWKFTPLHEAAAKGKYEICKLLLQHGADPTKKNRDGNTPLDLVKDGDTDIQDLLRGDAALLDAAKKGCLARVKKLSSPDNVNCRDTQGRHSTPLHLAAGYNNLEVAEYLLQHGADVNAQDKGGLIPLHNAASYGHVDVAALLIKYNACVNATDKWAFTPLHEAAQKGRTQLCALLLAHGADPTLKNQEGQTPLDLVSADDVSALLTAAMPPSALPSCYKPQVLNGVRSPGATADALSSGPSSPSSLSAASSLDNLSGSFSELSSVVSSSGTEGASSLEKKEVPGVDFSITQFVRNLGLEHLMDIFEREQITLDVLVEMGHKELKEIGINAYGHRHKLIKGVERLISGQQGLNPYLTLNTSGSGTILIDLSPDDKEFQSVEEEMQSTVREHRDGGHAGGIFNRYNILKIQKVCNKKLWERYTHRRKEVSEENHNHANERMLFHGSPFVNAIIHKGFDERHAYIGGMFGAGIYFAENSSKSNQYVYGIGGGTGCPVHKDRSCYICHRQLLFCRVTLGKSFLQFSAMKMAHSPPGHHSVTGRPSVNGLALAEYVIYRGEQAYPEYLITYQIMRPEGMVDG
Briefly: TNKS-2 autoribosylation assay. The conditions noted are these: for inhibition at 1 µM: read-out: % of inhibition TNKS-2, 1 μM, duplicate.

Assay [1] concerns RKO colorectal cancer cell line. Briefly: Cell growth inhibition, Wnt-negative RKO. The following applies: negative control cell line. The format is cell-based.
The subject of the next assay is DLD-1 cancer cells. Briefly: Colony growth assay, DLD-1. The format is cell-based. The conditions noted are these: 1, 5 and 10 μM, treated daily, 10 days.
Assay [2] concerns PARP enzymes (1–3, 6–8, 10–12, 14). The experiment in a line: PARP selectivity panel. The conditions noted are these: 10 μM, duplicate.
The subject of assay [3] is TCF transcriptional activity (Wnt) in DLD-1 colorectal cancer cells. Briefly: TCF-luciferase reporter. The format is cell-based. The following applies: DLD-1 cells, 1 μM, 24 h. In general terms: Reporter assays use an easily measured gene product as a stand-in for the process of interest.
Another assay concerns the target PARP-14 (Homo sapiens, UniProt Q460N5). Briefly: PARP-14 enzymatic assay. The conditions noted are these: 100 μM.
The next assay has as its target PARP-2 (Homo sapiens, UniProt Q9UGN5). The following applies: 20 nM, reference compound.

The values that follow come from PMC4415586 (European journal of medicinal chemistry, 2014).

Sequence of PARP-14 (Q460N5 whole entry): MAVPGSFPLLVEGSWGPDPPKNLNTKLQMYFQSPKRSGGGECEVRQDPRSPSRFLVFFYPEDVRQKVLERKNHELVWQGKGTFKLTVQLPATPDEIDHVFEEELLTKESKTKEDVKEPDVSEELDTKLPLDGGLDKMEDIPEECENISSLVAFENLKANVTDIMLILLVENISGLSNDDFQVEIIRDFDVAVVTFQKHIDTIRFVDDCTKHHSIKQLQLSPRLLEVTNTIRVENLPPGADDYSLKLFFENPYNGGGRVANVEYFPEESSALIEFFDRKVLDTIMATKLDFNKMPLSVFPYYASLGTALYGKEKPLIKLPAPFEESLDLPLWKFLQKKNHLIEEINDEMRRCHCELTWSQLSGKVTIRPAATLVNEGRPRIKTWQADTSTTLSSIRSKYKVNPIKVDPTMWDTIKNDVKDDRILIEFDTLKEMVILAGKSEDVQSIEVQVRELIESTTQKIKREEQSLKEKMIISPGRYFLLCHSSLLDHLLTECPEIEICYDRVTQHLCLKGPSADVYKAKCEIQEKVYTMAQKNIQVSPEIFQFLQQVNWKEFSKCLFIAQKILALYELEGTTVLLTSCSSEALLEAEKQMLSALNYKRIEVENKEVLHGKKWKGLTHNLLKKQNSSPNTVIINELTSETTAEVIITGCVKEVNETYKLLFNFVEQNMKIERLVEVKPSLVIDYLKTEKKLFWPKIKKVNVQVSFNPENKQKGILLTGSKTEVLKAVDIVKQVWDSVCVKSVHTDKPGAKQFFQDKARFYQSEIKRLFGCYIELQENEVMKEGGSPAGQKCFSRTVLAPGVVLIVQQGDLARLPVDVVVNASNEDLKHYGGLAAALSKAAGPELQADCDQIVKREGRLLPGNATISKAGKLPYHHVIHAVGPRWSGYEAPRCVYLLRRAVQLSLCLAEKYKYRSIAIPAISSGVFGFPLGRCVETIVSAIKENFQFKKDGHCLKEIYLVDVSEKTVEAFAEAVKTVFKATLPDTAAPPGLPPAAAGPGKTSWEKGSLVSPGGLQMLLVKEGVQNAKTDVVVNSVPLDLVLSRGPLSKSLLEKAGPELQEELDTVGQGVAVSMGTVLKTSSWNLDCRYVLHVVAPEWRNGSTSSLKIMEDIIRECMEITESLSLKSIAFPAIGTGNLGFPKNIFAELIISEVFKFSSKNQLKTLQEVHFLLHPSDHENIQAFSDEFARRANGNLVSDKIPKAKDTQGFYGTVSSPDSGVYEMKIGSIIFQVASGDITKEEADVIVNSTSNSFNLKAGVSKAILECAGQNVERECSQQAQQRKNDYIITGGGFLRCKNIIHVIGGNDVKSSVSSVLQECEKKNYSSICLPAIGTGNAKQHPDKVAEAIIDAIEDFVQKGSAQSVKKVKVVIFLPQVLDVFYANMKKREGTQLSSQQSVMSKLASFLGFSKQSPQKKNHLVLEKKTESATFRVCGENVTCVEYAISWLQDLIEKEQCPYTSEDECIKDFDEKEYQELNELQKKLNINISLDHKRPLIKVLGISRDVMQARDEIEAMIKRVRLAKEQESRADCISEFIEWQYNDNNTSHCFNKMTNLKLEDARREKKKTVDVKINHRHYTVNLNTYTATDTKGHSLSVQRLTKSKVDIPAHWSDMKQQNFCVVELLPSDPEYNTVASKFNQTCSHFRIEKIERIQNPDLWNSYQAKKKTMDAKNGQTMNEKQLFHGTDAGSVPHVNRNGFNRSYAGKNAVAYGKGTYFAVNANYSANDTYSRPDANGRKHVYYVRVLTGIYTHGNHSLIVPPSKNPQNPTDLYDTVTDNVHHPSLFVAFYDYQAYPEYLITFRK
Sequence of PARP-2 (Q9UGN5 whole entry): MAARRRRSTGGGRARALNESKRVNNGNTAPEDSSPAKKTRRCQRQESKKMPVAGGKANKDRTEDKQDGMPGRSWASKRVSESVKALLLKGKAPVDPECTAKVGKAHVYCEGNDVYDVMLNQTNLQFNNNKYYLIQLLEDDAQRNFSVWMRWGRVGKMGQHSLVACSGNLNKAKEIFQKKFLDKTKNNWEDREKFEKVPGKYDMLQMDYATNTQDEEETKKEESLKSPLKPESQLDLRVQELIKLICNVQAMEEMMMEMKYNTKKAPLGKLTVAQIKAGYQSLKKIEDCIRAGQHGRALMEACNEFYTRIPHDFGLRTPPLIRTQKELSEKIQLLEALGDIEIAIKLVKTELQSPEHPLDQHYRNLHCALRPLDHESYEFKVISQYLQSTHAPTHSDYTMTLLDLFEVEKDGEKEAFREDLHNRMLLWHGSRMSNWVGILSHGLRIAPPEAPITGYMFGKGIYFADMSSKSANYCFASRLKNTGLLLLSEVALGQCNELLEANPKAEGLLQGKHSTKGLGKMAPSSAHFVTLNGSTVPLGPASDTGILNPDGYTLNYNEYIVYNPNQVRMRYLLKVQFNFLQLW

Regarding `COc1ccc2sc3c(O)nc4ccccc4c3c2c1` [compound 6, 10-Methoxy[l]benzothieno[2,3-c]quinolin-6(5H)-one], the inhibition at 1 µM at TNKS-1 and at TNKS-2 was more than 70% each time. For the compound `COc1ccc2c(c1)nc(O)c1sc3ccccc3c12` [compound 7, 3-Methoxy[l]benzothieno[2,3-c]quinolin-6(5H)-one], the “% of inhibition TNKS-1” value at TNKS-1 is listed as more than 70%. The inhibition at 1 µM on TNKS-2 is more than 70%.

Regarding `O=c1[nH]c2ccccc2c2c1sc1ccc(O)cc12` [compound 8, 10-Hydroxy[l]benzothieno[2,3-c]quinolin-6(5H)-one], the inhibition at 1 µM at TNKS-1 is not above 90%.

For the compound `O=c1[nH]c2cc(O)ccc2c2c1sc1ccccc12` [compound 9, 3-Hydroxy[l]benzothieno[2,3-c]quinolin-6(5H)-one], at TNKS-1, the inhibition at 1 µM was not above 100%.

In the case of `O=c1[nH]c(-c2ccccc2)cc2c1sc1ccccc12` [compound 16, 3-Phenyl[1]benzothieno[2,3-c]pyridin-1(2H)-one], the inhibition at 1 µM on TNKS-1 worked out at 84%. Turning to `O=c1[nH]c(-c2ccccc2)nc2c3c(sc12)CCCC3` [compound 19, 2-Phenyl-6,7,8,9-tetrahydro-3H-benzo[4,5]thieno[3,2-d] pyrimidin-4-one], at TNKS-1, the “% of inhibition TNKS-1” value was “nearly inactive”. In the case of `Cc1ccc(-c2nc3c(sc4ccccc43)c(=O)[nH]2)cc1` [compound 22, 2-p-Tolyl-3H-benzo[4,5]thieno[3,2-d]pyrimidin-4-one], the inhibition at 1 µM on TNKS-1 was determined as 98%.

Take `CC(C)(C)c1ccc(-c2nc3c(sc4ccccc43)c(=O)[nH]2)cc1` [compound 23, 2-(4-tert-Butyl-phenyl)-3H-benzo[4,5]thieno[3,2-d] pyrimidin-4-one]: the “growth inhibition of Wnt-negative RKO cells” value in assay [1] is on record as “marginal non-specific effects were only detected at concentrations higher than 10 μM”. For the same compound, the TNKS-1 inhibition result on TNKS-1 (10 μM) is given as “fully inhibited”. For the same compound, the TNKS-2 inhibition entry at TNKS-2 (10 μM) is “fully inhibited”. Moreover, the “long-term growth inhibition of DLD-1 cells” value in the assay on DLD-1 cancer cells is listed as “marked efficacy”. In addition, in assay [2], the “inhibition of the other PARPs tested” value is reported as “below 20%”. Further, in assay [3], the “TCF reporter activity inhibition” value was “comparable fashion to the reference compounds 1 and IWR-1”. Take Olaparib [AZD 2281]: the “% inhibition PARP-14” value at PARP-14 is “less than 20%”. Moreover, the “% of inhibition PARP-2” value at PARP-2 was found to be 100%.

Broadly, the inhibition is the change of the read-out against control, counted positive when it falls.
